Data published in PMC8850191, “Mechanisms of inhibition and activation of extrasynaptic αβ GABAA receptors” (Nature, 2022).
Values joined by “and” are separate entries in the source; they are usually repeats but may differ in a detail not shown here. Identical values can stand only once. Like-named read-outs stand apart in the source and are kept apart here.

What was measured:
α1β3γ2WT [1] = target: T1, α1β3γ2WT (Homo sapiens, UniProt P14867+P18507+P28472); experiment: Probability of activation (PA), whole-cell, saturating GABA versus GABA + 1 mM pentobarbitone; format: cell-based; conditions: n = 6
T1 construct: expressed in transfected cells; host or cells: HEK 293 cells, transient calcium-phosphate transfection, α1:β3:γ2:GFP 1:1:3:1
Protocol: (§1) Whole-cell responses were recorded in patch clamp experiments from HEK 293 cells transiently transfected with human GABAA α1β3 (WT), α1GLIVIβ3BRIL (α1β3cryo-EM; see ‘Constructs’) or α1β3γ2 (WT). HEK 293 cells were grown in DMEM supplemented with 10% v/v fetal bovine serum, 100 U ml^−1 penicillin-G and 100 µg ml^−1 streptomycin (37 °C; 95% air/5% CO2), and transfected using a calcium-phosphate precipitation method with α1:β3:GFP or α1:β3:γ2:GFP cDNAs in a ratio of 1:1:1 or 1:1:3:1, respectively, 12–24 h before experimentation. Recordings were performed with cells continuously perfused with Krebs solution composed of (mM): 140 NaCl, 4.7 KCl, 1.2 MgCl2, 2.52 CaCl2, 11 Glucose and 5 HEPES (pH 7.4; ~300 mOsm). Patch pipettes (TW150F-4; WPI; 3–4 MΩ) were filled with an internal solution containing (mM): 140 KCl, 1 MgCl2, 11 EGTA, 10 HEPES,1 CaCl2, 2 K-ATP (pH 7.2; ~305 mOsm). […] Cells were voltage-clamped at −40 mV with an Axopatch 200B amplifier (Molecular Devices), currents were digitized at 50 kHz via a Digidata 1322A (Molecular Devices), filtered at 5 kHz (−36 dB), and acquired using Clampex 10.2 (Molecular Devices). Series resistance was compensated at 60–70% (lag time 10 μs).

α1β3γ2WT [2] = target: T1, α1β3γ2WT; experiment: GABA concentration used for single channel recording (~EC95); format: cell-based; conditions: concentration used for single channel recordings
Protocol: Single GABA-activated channel currents were recorded in outside-out patches from transfected HEK 293 cells at –70 mV holding potential. Channel currents were recorded using an Axopatch 200B and filtered at 5 kHz (4-pole Bessel filter) before digitizing at 20 kHz with a Digidata 1322A. The fixed time resolution of the system was set at 80 μs. WinEDR was used for analysing single channel data. The single-channel current was determined from compiling channel current amplitude histograms and fitting Gaussian components to define the mean current, s.d. and the total area of the component. […] Individual open and closed dwell times were measured using a 50% threshold cursor applied to the main single channel current amplitude in each patch. The subsequent detection of open and closed events formed the basis of an idealized single channel record used for compiling the dwell time distributions. Frequency distributions were constructed from the measured individual open and closed times and analysed by fitting a mixture of exponentials, defined by: y(t)=∑i=1nAi/τi×e^(−t/τi) where Ai is the area of the ith component to the distribution and τi represents the corresponding exponential time constant. […] An F-test determined the optimal number of exponential components that were required to fit the individual dwell time distributions. […]

human GABAA α1β3 (WT) [3] = target: T2, human GABAA α1β3 (WT) (Homo sapiens, UniProt P14867+P28472); experiment: Whole-cell patch clamp, GABA concentration response, HEK 293 cells; format: cell-based; parameters: expressed in transfected cells; host or cells: HEK 293 cells, transient calcium-phosphate transfection, α1:β3:GFP 1:1:1
T2 sequence (P14867 28-456): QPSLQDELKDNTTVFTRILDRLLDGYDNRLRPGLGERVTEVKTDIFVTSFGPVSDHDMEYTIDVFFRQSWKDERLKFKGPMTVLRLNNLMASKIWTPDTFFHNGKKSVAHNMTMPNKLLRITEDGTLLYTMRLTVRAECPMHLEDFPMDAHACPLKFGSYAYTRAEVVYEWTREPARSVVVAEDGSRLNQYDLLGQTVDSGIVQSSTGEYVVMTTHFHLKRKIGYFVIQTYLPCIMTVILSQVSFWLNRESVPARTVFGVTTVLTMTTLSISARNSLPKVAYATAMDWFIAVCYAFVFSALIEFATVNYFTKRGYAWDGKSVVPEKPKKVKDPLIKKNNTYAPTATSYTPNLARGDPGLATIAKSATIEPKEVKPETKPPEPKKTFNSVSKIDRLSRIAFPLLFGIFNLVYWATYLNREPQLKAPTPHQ
T2 sequence (P28472 26-473): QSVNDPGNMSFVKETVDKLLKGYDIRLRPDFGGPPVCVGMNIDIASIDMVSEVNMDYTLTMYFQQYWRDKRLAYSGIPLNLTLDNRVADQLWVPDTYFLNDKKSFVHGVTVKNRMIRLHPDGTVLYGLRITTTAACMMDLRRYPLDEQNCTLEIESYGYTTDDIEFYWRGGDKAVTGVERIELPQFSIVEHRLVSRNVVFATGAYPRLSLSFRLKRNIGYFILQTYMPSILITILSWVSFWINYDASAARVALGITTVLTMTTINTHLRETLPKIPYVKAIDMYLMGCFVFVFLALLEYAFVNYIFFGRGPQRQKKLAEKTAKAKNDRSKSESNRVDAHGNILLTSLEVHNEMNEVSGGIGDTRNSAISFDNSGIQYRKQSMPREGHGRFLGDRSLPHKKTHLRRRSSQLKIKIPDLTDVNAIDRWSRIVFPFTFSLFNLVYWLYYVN
Protocol: as §1
(§2) Peak current responses and desensitization rates were obtained using Clampfit 10.2 (Molecular Devices).

[4] = target: α1β3 cryo-EM construct (α1β3CryoEM) (Homo sapiens, UniProt P14867+P28472, DEL344-414/G341Q/R340S/S415R/S417A/V416A/Y342P); conditions: for IC50: mean pIC50 converted
Source text: The α1 intracellular M3–M4 loop amino acids 313–391 (RGYA…NSVS) were substituted by the SQPARAA sequence[46]. […] The mature engineered α1 construct with a 1D4 purification tag derived from bovine rhodopsin ([sequence]) that is recognized by the Rho-1D4 monoclonal antibody (University of British Columbia)[47],[48] was cloned into the pHLsec vector after the vector secretion signal[49], ending [sequence]. […] The engineered β3 construct was cloned into pHLsec after the vector secretion sequence without any tags.
as §1
(§3) For free Zn^2+ concentration experiments, the Zn^2+ chelator tricine was used to precisely control Zn^2+ concentration and eliminate background Zn^2+ contamination. Krebs solution was supplemented with 10 mM tricine and pH corrected to 7.4.
as §2

αβδ receptors = conditions: one β-subunit His replaced by Ser (δ-subunit), relative to αβ; cited from earlier work
αβγ receptors = conditions: one β-subunit His replaced by Ile (γ-subunit), relative to αβ; cited from earlier work
human GABAA α1β3 (WT) [5] = target: T2, human GABAA α1β3 (WT); experiment: Whole-cell patch clamp, Zn2+ inhibition of GABA currents, HEK 293 cells; format: cell-based; parameters: expressed in transfected cells; host or cells: HEK 293 cells, transient calcium-phosphate transfection, α1:β3:GFP 1:1:1
Protocol: as §1, §3, §2

α1β3 = test system: α1β3; parameters: method as in earlier work; conditions: muscimol versus muscimol + propofol; ref 2020 Akk G Steinbach JH, PMID:32873746; cited from earlier work
α2-GABAAR subunit = conditions: Lys in α2 at the position of α1 Ser69; cited from earlier work
GABA-A receptors = conditions: author rebuttal, peer review file; reference not given; cited from earlier work
[6] = 66 nM free Zn2+ (tricine-controlled), α1β3 cryo-EM construct, mean ± s.e.m., n = 7
[7] = 66 nM free Zn2+ (tricine-controlled), wild-type, mean ± s.e.m., n = 7

T1 sequence (P18507 40-475, one chain of several): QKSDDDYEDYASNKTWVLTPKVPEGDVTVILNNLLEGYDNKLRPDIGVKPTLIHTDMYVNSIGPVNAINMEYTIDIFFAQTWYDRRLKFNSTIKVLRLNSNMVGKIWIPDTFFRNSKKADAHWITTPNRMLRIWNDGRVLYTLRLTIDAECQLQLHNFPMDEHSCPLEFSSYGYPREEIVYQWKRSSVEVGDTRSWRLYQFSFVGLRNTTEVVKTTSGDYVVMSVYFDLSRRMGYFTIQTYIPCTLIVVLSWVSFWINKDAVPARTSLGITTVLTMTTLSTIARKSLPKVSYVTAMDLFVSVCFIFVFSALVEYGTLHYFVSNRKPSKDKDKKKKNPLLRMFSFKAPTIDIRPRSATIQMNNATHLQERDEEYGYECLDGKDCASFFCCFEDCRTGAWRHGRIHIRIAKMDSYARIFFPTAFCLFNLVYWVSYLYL
Sequence of α1β3 cryo-EM construct (α1β3CryoEM) (P14867 with tags, fused parts or gaps R340S/G341Q/Y342P/DEL344-414/S415R/V416A/S417A): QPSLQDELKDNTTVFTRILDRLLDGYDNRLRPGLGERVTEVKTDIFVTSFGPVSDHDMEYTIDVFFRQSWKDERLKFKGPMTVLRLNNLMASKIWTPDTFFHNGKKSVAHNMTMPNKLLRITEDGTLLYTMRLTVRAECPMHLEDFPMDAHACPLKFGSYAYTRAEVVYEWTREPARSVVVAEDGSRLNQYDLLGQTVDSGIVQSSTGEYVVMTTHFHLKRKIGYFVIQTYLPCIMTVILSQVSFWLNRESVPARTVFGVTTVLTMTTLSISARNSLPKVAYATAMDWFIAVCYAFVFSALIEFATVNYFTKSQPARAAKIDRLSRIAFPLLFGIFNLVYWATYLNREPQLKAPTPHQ
Sequence of α1β3 cryo-EM construct (α1β3CryoEM) (P28472 with tags, fused parts or gaps, stated change not applied): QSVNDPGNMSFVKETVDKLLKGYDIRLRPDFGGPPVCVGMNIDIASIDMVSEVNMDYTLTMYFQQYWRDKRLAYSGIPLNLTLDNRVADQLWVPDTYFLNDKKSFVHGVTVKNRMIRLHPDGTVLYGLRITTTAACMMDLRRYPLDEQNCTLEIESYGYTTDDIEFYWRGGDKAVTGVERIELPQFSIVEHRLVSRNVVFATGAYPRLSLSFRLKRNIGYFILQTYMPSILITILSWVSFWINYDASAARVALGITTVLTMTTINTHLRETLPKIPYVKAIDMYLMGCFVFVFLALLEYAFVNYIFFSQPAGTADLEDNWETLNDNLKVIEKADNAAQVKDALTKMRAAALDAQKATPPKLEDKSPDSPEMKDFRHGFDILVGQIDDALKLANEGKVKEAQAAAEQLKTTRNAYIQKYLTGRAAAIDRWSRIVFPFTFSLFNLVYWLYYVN

Question: Which results are given for `NCCCC(=O)O` [GABA, γ-aminobutyric acid]?
Answer: probability of activation (PA) (α1β3γ2WT [1]): > 0.9 and 0.94 ± 0.03; GABA ~EC95 (α1β3γ2WT [2]): ~100000 nM; GABA EC20 (human GABAA α1β3 (WT) [3]; submaximal (20%) response, used for wild-type and cryo-EM construct): 1000 nM; GABA ~EC95 (human GABAA α1β3 (WT) [3]; α1β3WT, concentration used for single channel recordings): ~30000 nM

Question: For `[Zn+2]` [Zn^2+], which “inhibition of EC20 (1 μM) GABA response” value [4, 6] is on record?
Answer: The value was 32 ± 2%.

Question: And the “inhibition of maximal (1 mM) GABA response” value [4, 6]?
Answer: The value was 32 ± 4%.

Question: What about the inhibition ([4]; 20 μM Zn2+, Extended Data Fig. 5a (shows WT and cryo-EM construct)) of the same molecule?
Answer: Its inhibition is “approximately 90%”.

Question: What about the IC50 ([4]; read-out: IC50 Zn2+ inhibition, α1β3CryoEM, absence of tricine) of the same molecule?
Answer: The IC50 was 220 nM.

Question: What about the IC50 ([4]; read-out: IC50 free Zn2+ inhibition, α1β3CryoEM, 10 mM tricine) of the same molecule?
Answer: The IC50 was 230 nM.

Question: And the “pIC50 free Zn2+ inhibition” value ([4]; α1β3CryoEM, 10 mM tricine, n = 7)?
Answer: The value was 6.64 ± 0.2.

Question: And the “pIC50 Zn2+ inhibition” value ([4]; α1β3CryoEM, absence of tricine, n = 6)?
Answer: Its value is 6.66 ± 0.11.

Question: What about the “reduction of Zn2+ sensitivity” value (αβδ receptors) of the same molecule?
Answer: The value was 50 fold.

Question: What about the “reduction of Zn2+ sensitivity” value (αβγ receptors) of the same molecule?
Answer: Its value is 200 fold.

Question: What about the “inhibition of EC20 (1 μM) GABA response” value (human GABAA α1β3 (WT) [5]; [7]) of the same molecule?
Answer: The value was 38 ± 2%.

Question: And the “inhibition of maximal (1 mM) GABA response” value (human GABAA α1β3 (WT) [5]; [7])?
Answer: The value was 36 ± 6%.

Question: What about the IC50 (human GABAA α1β3 (WT) [5]; α1β3WT, 10 mM tricine, mean pIC50 converted, read-out: IC50 free Zn2+ inhibition) of the same molecule?
Answer: The IC50 was 149 nM.

Question: And the “pIC50 free Zn2+ inhibition” value (human GABAA α1β3 (WT) [5]; α1β3WT, 10 mM tricine, n = 8)?
Answer: The value was 6.83 ± 0.1.

Question: For `NCc1cc(=O)[nH]o1` [muscimol], which “probability of activation (PA)” value (α1β3) is on record?
Answer: The value was ~ 0.6.

B1: α-Cobratoxin (protein)
chain: IRCFITPDITSKDCPNGHVCYTKTWCDAFCSIRGKRVDLGCAATCPTVKTGVDIQCCSTDNCNPFPTRKRP
Question: For B1, which “reduction of sensitivity to α-CBTx” value (α2-GABAAR subunit) is on record?
Answer: The value was “fivefold”.

Question: What about the “sensitivity of GABA-A receptors” value (GABA-A receptors) of the same molecule?
Answer: Its value is “sub-micromolar”.
